Values after ≈ are worked out from the molar mass of the structure shown.
What was measured:
[1] = tested on: P. aeruginosa (ATCC 27853); experiment: MIC by microdilution in Müller–Hinton broth; type: cell-based, Pseudomonas aeruginosa; details: 18 h, OD 630 nm, n = 9
Description: P. aeruginosa (ATCC 27853) from Museum of Microbiological Cultures of State Research Institute of Highly Pure Biopreparations FMBA (St. Petersburg, Russia) and Müller–Hinton Broth (HiMedia, Mumbai, India) were used to study the antibacterial effect of PMX B and its conjugates. HEK 293T cells were purchased from the cell culture collection of the Institute of Cytology of Russian Academy of Sciences (St. Petersburg, Russia).
The minimum inhibitory concentration (MIC) of polymyxin B in the conjugates was determined by the microdilution method in Müller–Hinton broth. Before the samples were tested against P. Aeruginosa, they were checked for microbiological purity to exclude possible contamination. In all cases, the absence of microbial growth on Luria–Bertani agar was detected. […] The plate was incubated for 18 h at 37 °C and then the optical density in the wells was measured at 630 nm using a microplate reader (ELx808™ Absorbance Microplate Reader, BioTek-Agilent, Santa Clara, CA, USA). Relative bacterial growth (%) was calculated from the data of OD measured for samples and control according to the equation: (2) Relative bactearial growth=OD630 sample at Cx−OD630 blank/OD630 positive control−OD630 blank×100% where Cx is a certain concentration of the sample. […]

S. aureus = details: cited from earlier work
Description: A series of conjugates of loracarbef (cephalosporins) and ciprofloxacin (fluroquinolones) with sideromycins (siderophores) was synthesized and tested against a panel of ESKAPEE bacteria (Enterococcus faecium, S. aureus, Klebsiella pneumoniae, A. baumannii, P. aeruginosa, Enterobacter aerogenes, E. coli).

P. aeruginosa = details: free colistin; cited from earlier work
Method: According to the published works, many factors affect the MIC for conjugates linked with amide bonds. For example, Dubashynskaya et al. observed the dependence of MIC on the degree of substitution (DS). In particular, when the DS was 8%, the MIC against P. aeruginosa for hyaluronan–colistin conjugates was 1 µg/mL, the same as for free colistin. At the same time, a decrease in DS to 5 and 3% was accompanied with the MIC increase to 4 and more than 8 µg/mL, respectively.

[2] = tested on: Acinetobacter baumannii (Ab ATCC 19606); details: cited from earlier work
HEK 293T cells = experiment: MTT cytotoxicity in HEK 293T cells, 48 h; type: cell-based, human; details: free polymers and free PMX B, tested 4 to 1000 µg/mL, mean ± SD, n = 4
Method: The cell viability was determined after 48 h using the MTT assay (Figure 6).
HEK 293T cells were cultivated in DMEM/F12 medium with 10% FCS, 2 mM glutamine, and 1% gentamicin (Sigma-Aldrich, Darmstadt, Germany). In 96-well plates, 3.5 × 10^3 cells in 100 µL were seeded per well and left for adhesion at 37 °C for 24 in a humidified 5% CO2 atmosphere. After that, the medium in the wells was replaced with 200 µL of solution containing the test samples at the specified concentrations (n = 4) and left for incubation under the same conditions for 48 h. Then, the medium was removed and 100 µL of MTT reagent solution (5 mg/mL stock solution) was added to each well. The plates were incubated in the CO2 incubator for 3 h at 37 °C. Finally, the solution in the well was replaced with 50 µL of DMSO to dissolve formazan crystals and the optical density in each well was measured at 570 nm using fluorescent plate reader (Fluoroscan Ascent, Thermo Fisher Scientific Inc., Waltham, MA, USA). The wavelength of 690 nm was used to measure the background absorbance. The data obtained were normalized as a percentage of the control. Free polymers and PMX B were tested at concentrations ranging from 4 to 1000 µg/mL.

CC(=O)N(O)CCCCCNC(=O)CCC(=O)N(O)CCCCCNC(=O)CCC(=O)N(O)CCCCCN [DFOA, deferoxamine]
antimicrobial activity ([1]; P. aeruginosa, concentration range of 0.25–64 μg/mL): neither polymers nor DFOA exhibited antimicrobial activity

N[C@@H](C(=O)N[C@@H]1C(=O)N2C(C(=O)O)=C(Cl)CC[C@H]12)c1ccccc1 [loracarbef]
MIC (S. aureus): 1 µM (≈ 0.35 µg/mL)

colistin
MIC (P. aeruginosa): 1 µg/mL
MIC [2]: 1 µg/mL

polymyxin B [PMX B]
MIC ([1]; P. aeruginosa ATCC 27853, microdilution, Müller–Hinton broth, 1 × 10^7 CFU/mL, 37 °C, MIC of polymyxin B in the conjugates): 4 µg/mL
IC50 (HEK 293T cells): 130 ± 14 µg/mL
